This is an account of results in patent publication US8476434B2, “Protein kinase modulators and method of use” (Amgen Inc., priority 2004, dated 2013).

T1 sequence (P06239 225-509): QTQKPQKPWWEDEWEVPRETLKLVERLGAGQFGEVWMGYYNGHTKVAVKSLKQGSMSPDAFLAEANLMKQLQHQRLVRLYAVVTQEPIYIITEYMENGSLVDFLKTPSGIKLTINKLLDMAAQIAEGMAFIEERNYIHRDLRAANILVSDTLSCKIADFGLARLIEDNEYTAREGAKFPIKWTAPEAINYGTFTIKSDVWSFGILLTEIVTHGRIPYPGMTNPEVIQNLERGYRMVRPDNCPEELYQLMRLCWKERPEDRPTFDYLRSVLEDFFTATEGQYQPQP

This assay has as its target T1, LCK KD GST (225-509) (Homo sapiens, UniProt P06239).
T1 construct: LCK KD GST (225-509); GST
Put plainly: LCK Homogenous Time Resolved Fluorescent (HTRF) kinase assay. It counts as biochemical. (In general: In TR-FRET formats the signal depends on donor and acceptor labels being close together.)
`COc1ccc(C2CCCCC2)cc1NC(=O)c1ccc(C)c(Oc2ncccc2-c2ncnc(NCCCCN(C)C)n2)c1` [N-(5-cyclohexyl-2-(methyloxy)phenyl)-3-((3-(4-((4-(dimethylamino)butyl)amino)-1,3,5-triazin-2-yl)-2-pyridinyl)oxy)-4-methylbenzamide] displayed an IC50 of less than 1000 nM.

The compound `CCNc1ncnc(-c2cccnc2Oc2cc(C(=O)Nc3cc(C4CCCCC4)ccc3OC)ccc2C)n1` [N-(5-cyclohexyl-2-(methyloxy)phenyl)-3-((3-(4-(ethylamino)-1,3,5-triazin-2-yl)-2-pyridinyl)oxy)-4-methylbenzamide] had an IC50 of less than 1000 nM. The result for `CNc1cc(-c2cccnc2Oc2cc(C(=O)Nc3cc(C4CCCCC4)ccc3OC)ccc2C)ccn1` [N-(5-cyclohexyl-2-(methyloxy)phenyl)-4-methyl-3-((2′-(methylamino)-3,4′-bipyridin-2-yl)oxy)benzamide] reads less than 1000 nM; that for `CNc1nccc(-c2cccnc2Oc2cc(C(=O)Nc3cc(C4CCCCC4)ccc3OC)ccc2C)n1` [N-(5-cyclohexyl-2-(methyloxy)phenyl)-4-methyl-3-((3-(2-(methylamino)-4-pyrimidinyl)-2-pyridinyl)oxy)benzamide], less than 1000 nM. `CNc1ncnc(-c2cccnc2Oc2cc(C(=O)Nc3cc(C4CCCCC4)ccc3OC)ccc2C)n1` [N-(5-cyclohexyl-2-(methyloxy)phenyl)-4-methyl-3-((3-(4-(methylamino)-1,3,5-triazin-2-yl)-2-pyridinyl)oxy)benzamide] yielded an IC50 of less than 1000 nM. In turn, `COc1ccc(C2CCCCC2)cc1NC(=O)c1ccc(C)c(Oc2ncccc2-c2ccncn2)c1` [N-(5-cyclohexyl-2-(methyloxy)phenyl)-4-methyl-3-((3-(4-pyrimidinyl)-2-pyridinyl)oxy)benzamide] returned an IC50 of less than 1000 nM. Take `CNc1nccc(-c2cccnc2Oc2ccc(F)c(C(=O)Nc3cc(C4CC4)ccc3N(C)CCCN(C)C)c2)n1` [N-(5-cyclopropyl-2-((3-(dimethylamino)propyl)(methyl)amino)phenyl)-2-fluoro-5-((3-(2-(methylamino)-4-pyrimidinyl)-2-pyridinyl)oxy)benzamide]: the half-inhibitory concentration (IC50) is less than 1000 nM. The result for `Cc1ccc(C(=O)N[C@H](C)C2CCCCC2)cc1Nc1ncccc1-c1ccncn1` [N-((1R)-1-cyclohexylethyl)-4-methyl-3-((3-(4-pyrimidinyl)-2-pyridinyl)amino)benzamide] reads less than 1000 nM.

In general, IC50 refers to the concentration at which inhibition is half-maximal.
